Assay results published in US6586460B1, “Heteroarotinoids containing urea or thiourea linker” (The Board of Regents for Oklahoma State University, priority 2001, dated 2003).
Values joined by “and” are separate entries in the source; they are usually repeats but may differ in a detail not shown here. Identical values can stand only once.

Key:
CAOV-3 = assay: Growth inhibition assay (SRB); assay type: cell-based; details: 3 days of treatment; for inhibition at 1 µM / inhibition at 10 µM: Homo sapiens, Caov-3, 72 h, read-out: Percentage of growth inhibition, CAOV−3
Source text: (§1) To illustrate the general and useful biological activity of the heteroarotinoids described in this invention, selected compounds were screened for ability to inhibit the growth of three ovarian cancerous cell lines, namely Caov, SKOV, and OVCAR cell lines, three cervical cell lines (Cervix HPV-Wt p53, Cervix HPV-Mut p53, and Cervix HPV-Mut p53), and one vulvar (Vulvar HPV-Mut p53) cell line as shown in Tables I-III. The cell lines and the technology have been previously described [See Journal of Medicinal Chemistry, 1999, Vol. 42, pages 3602-3614 in an article entitled “Synthesis, Structure-Activity Relationships, and RAR γ-Ligand Interactions of Nitrogen Heteroarotinoids” by A. Dhar, S. Liu, J. Klucik, K. D. Berlin, M. M. Madler, S. Lu, R. T. Ivey, D. Zacheis, C. W. Brown, E. C. Nelson, P. J. Birckbichler, and D. M. Benbrook], but the general technique was slightly modified. Cultures of the cancerous cells were plated in volumes of 150 μL in 96-well microtiter plates at concentrations of 2000-4000 cells/well, depending upon the cell line used. Retinoids were added the next day at 4× the concentrations in 50 μL of media resulting in 1, 2, 3, 4, 5, 7, and 10 μM final concentrations of each retinoid. Control cultures were treated with the same volume of DMSO. After 3 days of treatment, the cell density in each well was determined by fixing the cells in trichloroacetic acid followed by staining the cytoplasmic proteins with sulforhoamine B (SRB). After rinsing, the SRB was solubilized in Tris-HCl, and the optical density of each culture was determined with a MR600 microtiter plate reader. Each experiment was performed in triplicate, and the three values of each treatment were averaged. The average OD of the treated cultures was divided by that of the control cultures treated with solvent alone. To determine the percent growth inhibition, this ratio was subtracted from 1 and multiplied by 100. Tables I, II, and III contain representative examples of the inhibition of growth by the inventive heteroarotinoids of the cancerous cell lines investigated at two independent concentrations (1 and 10 μM). As standards for comparison purposes, trans-retinoic acid (t-RA), 9-cis-retinoic acid (9-c-RA), 13-cis-retinoic acid (13-c-RA), and […] (4-HPR) were added in parallel experiments along with the heteroarotinoids and with dimethyl sulfoxide (DMSO) as the solvent. For convenience, the data in Tables II and III are duplicated and ranked according to tumor type.

SK-OV-3 = assay: Growth inhibition assay (SRB); assay type: cell-based; details: 3 days of treatment; for inhibition at 1 µM / inhibition at 10 µM: Homo sapiens, SK-OV-3, 72 h, read-out: Percentage of growth inhibition, SKOV−3
Source text: as §1

OVCAR-3 = assay: Growth inhibition assay (SRB); assay type: cell-based, human; details: for Percentage of growth inhibition, OVCAR−3 / inhibition at 1 µM / inhibition at 10 µM: 3 days of treatment; for inhibition at 1 µM / inhibition at 10 µM: Homo sapiens, OVCAR-3, 72 h, read-out: Percentage of growth inhibition, OVCAR−3
Source text: as §1

[1] = test system: SW962 vulvar carcinoma cultures; assay: Apoptosis assay, Annexin-V-Flous/propidium iodide flow cytometry; assay type: cell-based
Source text: Optimal chemotherapeutic agents will selectively kill tumor cells by inducing a natural form of cell death which is called “apoptosis”. Toxic agents kill both normal and tumor cells via a nonspecific process known as “necrosis”. To differentiate between apoptosis and necrosis in heteroarotinoid-treated cultures, a flow cytometric assay was employed. Treated cultures were stained with Annexin-V-Flous and propidium iodide, and the intensities of the stains are quantitated with Flow Cytometry. The Annexin-V-Flous binds to phosphatidyl serine on the exterior of apoptosing cells. This assay is specific for apoptosing cells because phosphatidyl serine is normally located on the inner membrane of the cells, a situation whereby the serine derivative cannot be bound by Annexin. However, during apoptosis, phosphatidyl serine is translocated to the outer membrane. The Flous moiety emits a signal that can be detected and quantitated by Flow Cytometry. In contrast, propidium iodide is taken up by necrotic cells that have lost membrane integrity. In this study, t-RA was used as a control for the non-apoptotic retinoids, and 4-HPR was used as a control for the apoptotic retinoids.

Compound | Percentage of growth inhibition, CAOV−3 (CAOV-3; 1 μM, Table II) [%] | Percentage of growth inhibition, CAOV−3 (CAOV-3; 10 μM, Table III) [%] | Percentage of growth inhibition, SKOV−3 (SK-OV-3; 1 μM, Table II) [%] | Percentage of growth inhibition, SKOV−3 (SK-OV-3; 10 μM, Table III) [%] | Percentage of growth inhibition, OVCAR−3 (OVCAR-3; 1 μM, Table II) [%] | Percentage of growth inhibition, OVCAR−3 (OVCAR-3; 10 μM, Table III) | other results
CC(=O)c1cc(NC(=S)Nc2ccc([N+](=O)[O-])cc2)c2c(c1)C(C)(C)CCO2 [heteroarotinoid 46] | 3.85 | −5.35 | −1.53 | 0.25 | 8.57 | 43.15% | 
CCCCOC(=O)c1ccc(NC(=O)Nc2c(OC)ccc3c2C(C)(C)COC3(C)C)cc1 [heteroarotinoid 40] | 15.24 | 37.84 | 1.82 | 9.27 | 15.47 | 33.74% | inhibition of growth of the OVCAR cell line exceeding that of 4-HPR (OVCAR-3; 1 μM, Table II): more than 1200%; inhibition of growth of the OVCAR cell line exceeding that of 9-c-RA (OVCAR-3; 1 μM, Table II): about 120%; inhibition of growth of the OVCAR cell line exceeding that of 13-c-RA (OVCAR-3; 1 μM, Table II): about 40%; inhibition of growth of the OVCAR cell line exceeding that of t-RA (OVCAR-3; 1 μM, Table II): about 120%
Cc1cc2c(cc1NC(=S)Nc1ccc(S(N)(=O)=O)cc1)C(C)(C)CC(C)(C)S2 [heteroarotinoid 20] |  |  | 14.7 | 12.1 | 10.3 | 47.1% | 
trans-retinoic acid [t-RA, reference compound] |  |  | 8.8 | 6.0 | 6.0 | −3.0% and 3.0% | Percentage of induction of apoptosis in SW962 vulvar carcinoma cultures ([1]; Days 0): 3%; Percentage of induction of apoptosis in SW962 vulvar carcinoma cultures ([1]; Days 1): 2.53%; Percentage of induction of apoptosis in SW962 vulvar carcinoma cultures ([1]; Days 3): 1.25%; Percentage of induction of apoptosis in SW962 vulvar carcinoma cultures ([1]; Days 4): 4.5%; Percentage of induction of apoptosis in SW962 vulvar carcinoma cultures ([1]; Days 7): 3.51%
CC1(C)CC(C)(C)c2cccc(NC(=S)Nc3ccc([N+](=O)[O-])cc3)c2S1 [heteroarotinoid 22, [(4-Nitrophenyl)amino][(2,2,4,4-tetramethyl{3H-benzo[3,4-e]thiany-8-yl})amino]methane-1-thione] | −9.97 |  | 1.09 |  | 4.07 | 40.13% and 40.14% | 
CC1(C)CC(C)(C)c2cc(NC(=S)Nc3ccc(S(N)(=O)=O)cc3)ccc2S1 [heteroarotinoid 15] | 19.85 | −9.56 | −1.86 | 9.83 | 8.91 | 40.90% | 
13-cis-retinoic acid [13-c-RA, reference compound] |  |  | 28.5 |  | 9.8 |  | 
CCOC(=O)c1ccc(NC(=O)Nc2cc(C(C)=O)cc3c2OCCC3(C)C)cc1 [heteroarotinoid 45, Ethyl 4-{[N-(6-Acetyl-4,4-dimethylchroman-8-yl)carbamoyl]amino}benzoate] |  |  |  |  |  |  | inhibition at 1 µM (CAOV-3; 1 μM, Table II): 7.18%; inhibition at 10 µM (CAOV-3; 10 μM, Table III): 42.8%; inhibition at 1 µM (SK-OV-3; 1 μM, Table II): -4.18%; inhibition at 10 µM (SK-OV-3; 10 μM, Table III): 20%; inhibition at 1 µM (OVCAR-3; 1 μM, Table II): 9.2%; inhibition at 10 µM (OVCAR-3; 10 μM, Table III): 47.2%
CCOC(=O)c1ccc(NC(=O)Nc2c(OC)ccc3c2C(C)(C)COC3(C)C)cc1 [heteroarotinoid 38, Ethyl 4-{[N-(6-Methoxy-1,1,4,4-tetramethylisochroman-5-yl)carbamoyl]amino}benzoate] |  |  |  |  |  |  | inhibition at 1 µM (CAOV-3; 1 μM, Table II): 8.79%; inhibition at 10 µM (CAOV-3; 10 μM, Table III): -16.1%; inhibition at 1 µM (SK-OV-3; 1 μM, Table II): -2.39%; inhibition at 10 µM (SK-OV-3; 10 μM, Table III): -7.7%; inhibition at 1 µM (OVCAR-3; 1 μM, Table II): 9.48%; inhibition at 10 µM (OVCAR-3; 10 μM, Table III): 8.96%
Cc1cc2c(cc1NC(=S)Nc1ccc(C(=O)O)cc1)C(C)(C)CC(C)(C)S2 [heteroarotinoid 18] |  |  | 10.5 | 8.5 | 10.1 | 18.7% | 
CC1(C)CC(C)(C)c2cc(NC(=O)Nc3ccc(C(=O)O)cc3)ccc2S1 [heteroarotinoid 14] | −4.00 | 6.12 | 3.58 | 0.43 | −6.70 | 5.45% | 
COc1ccc2c(c1NC(=S)Nc1ccc([N+](=O)[O-])cc1)C(C)(C)COC2(C)C [heteroarotinoid 41] | 7.58 | 61.94 | −2.72 | 45.45 | 7.18 | 81.71% | 
Cc1cc([N+](=O)[O-])ccc1NC(=S)Nc1cc2c(cc1C)SC(C)(C)CC2(C)C [heteroarotinoid 19] |  |  | 16.3 | 33.3 | 9.6 | 33.2% | 
CCOC(=O)c1ccc(NC(=S)Nc2cccc3c2SC(C)(C)CC3(C)C)cc1 [heteroarotinoid 23] | 11.36 | 17.77 | −0.79 | 7.67 | −0.19 | 2.75% | 
COc1cc2c(cc1NC(=S)Nc1ccc([N+](=O)[O-])cc1C)C(C)(C)OCC2(C)C [heteroarotinoid 35] |  |  | 10.3 | −14.3 | 5.6 | 6.1% | 
Cc1cc2c(cc1NC(=S)Nc1ccc([N+](=O)[O-])cc1)C(C)(C)CC(C)(C)S2 [heteroarotinoid 17] |  |  | 3.0 | 65.3 | 6.6 | 64.9% | 
CCCCOC(=O)c1ccc(NC(=O)Nc2cc3c(cc2OC)C(C)(C)COC3(C)C)cc1 [heteroarotinoid 34] |  |  | 22.2 | 6.0 | 2.2 | 30.5% | 
CCOC(=O)c1ccc(NC(=O)Nc2cc3c(cc2OC)C(C)(C)COC3(C)C)cc1 [heteroarotinoid 33] | 3.79 | 40.04 | 1.65 | 15.60 | 8.81 | 52.61% | 
